Assay results: ChEMBL document CHEMBL3044722, “Potent enantioselective auxin: indole-3-succinic acid” (2002)

How the values were obtained:
Type in all cases: functional
Fuchsia [1] = test: Induction of root growth in swingtime Fuchsia hybrida at 10^-7 M after 7 to 34 days relative to indole-3-butyric acid
Fuchsia [2] = test: Induction of root growth in swingtime Fuchsia hybrida at 10^-8 M after 7 to 34 days relative to indole-3-butyric acid
Fuchsia [3] = test: Induction of root growth in varigated Fuchsia hybrida at 10^-8 M after 7 to 34 days relative to indole-3-butyric acid
Fuchsia [4] = test: Induction of root growth in varigated Fuchsia hybrida at 10^-7 M after 7 to 34 days relative to indole-3-butyric acid

Compound	Ratio (Fuchsia [1])	Ratio (Fuchsia [2])	Ratio (Fuchsia [3])	Ratio (Fuchsia [4])
O=C(O)C[C@H](C(=O)O)c1c[nH]c2ccccc12	5.7	4.8	4.6	3.8
O=C(O)C[C@@H](C(=O)O)c1c[nH]c2ccccc12	5.6	7.1	4.4	0.7
O=C(O)CC(C(=O)O)c1c[nH]c2ccccc12 (racemic)	7			
O=C(O)Cc1c[nH]c2ccccc12 [INDOLE-3-ACETIC ACID]	0			0
